Common to all, as to assay: cell-based
In one assay the target is T1, Kv1.1 (Homo sapiens, UniProt Q09470).
T1 construct: expressed in transfected cells; host or cells: Chinese Hamster Ovary (CHO)
The conditions noted are these: for IC50: CHO cells, whole-cell patch clamp, read-out: Potency IC50 (nM) Kv1.1; for Selectivity Kv1.1/Kv1.3: ratio IC50[Kv1.1]/IC50[Kv1.3]. (In patch-clamp work, channel activity is measured electrically.)

Another assay deals with T2, Kv1.3 (Homo sapiens, UniProt P22001).
T2 construct: expressed in transfected cells; host or cells: Chinese Hamster Ovary (CHO)
The conditions noted are these: CHO cells, whole-cell patch clamp; read-out: Potency IC50 (nM) Kv1.3.

The target in assay [1] is T3, human Kv1.3 voltage-gated K+ channel (Homo sapiens, UniProt P22001).
T3 construct: host or cells: CHO-DUKX
Particulars: inhibition of thallium flux, CHO-DUKX cells with human Kv1.3; read-out: IC50.

The next assay deals with T4, Kv1.6 (Homo sapiens, UniProt P17658).
T4 construct: expressed in transfected cells; host or cells: Chinese Hamster Ovary (CHO)
The conditions noted are these: for IC50: CHO cells, whole-cell patch clamp, read-out: Potency IC50 (nM) Kv1.6; for Selectivity Kv1.6/Kv1.3: ratio IC50[Kv1.6]/IC50[Kv1.3].

The target of a further assay is T5, Kv1.2 (Homo sapiens, UniProt P16389).
T5 construct: expressed in transfected cells; host or cells: Chinese Hamster Ovary (CHO)
The conditions noted are these: for IC50: CHO cells, whole-cell patch clamp, read-out: Potency IC50 (nM) Kv1.2.

One may read the IC50 as the concentration that gives 50% inhibition. One may read the pIC50 as the negative decadic logarithm of the IC50, by convention in mol/L.

pIC50: −log10 of the molar value. Bridge positions count the residues as written; N and C are the ends. Square brackets hold non-standard residues; d marks the D form. Peptide text beside a SMILES is read from it. Nle = CCCC[C@H](N)C(=O)O

T5 sequence (P16389 whole entry): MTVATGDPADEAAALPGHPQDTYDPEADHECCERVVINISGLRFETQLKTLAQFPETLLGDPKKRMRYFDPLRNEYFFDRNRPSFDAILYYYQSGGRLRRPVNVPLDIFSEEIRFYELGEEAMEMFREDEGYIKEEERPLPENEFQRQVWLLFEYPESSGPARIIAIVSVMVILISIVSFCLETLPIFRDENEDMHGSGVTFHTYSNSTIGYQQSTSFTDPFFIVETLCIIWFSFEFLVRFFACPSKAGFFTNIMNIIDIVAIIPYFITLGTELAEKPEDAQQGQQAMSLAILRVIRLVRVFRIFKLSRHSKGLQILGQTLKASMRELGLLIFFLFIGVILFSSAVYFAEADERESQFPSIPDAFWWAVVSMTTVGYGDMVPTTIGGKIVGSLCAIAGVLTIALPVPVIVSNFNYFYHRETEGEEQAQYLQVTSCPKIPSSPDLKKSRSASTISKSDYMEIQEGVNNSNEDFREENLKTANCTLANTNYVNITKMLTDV
T1 sequence (Q09470 whole entry): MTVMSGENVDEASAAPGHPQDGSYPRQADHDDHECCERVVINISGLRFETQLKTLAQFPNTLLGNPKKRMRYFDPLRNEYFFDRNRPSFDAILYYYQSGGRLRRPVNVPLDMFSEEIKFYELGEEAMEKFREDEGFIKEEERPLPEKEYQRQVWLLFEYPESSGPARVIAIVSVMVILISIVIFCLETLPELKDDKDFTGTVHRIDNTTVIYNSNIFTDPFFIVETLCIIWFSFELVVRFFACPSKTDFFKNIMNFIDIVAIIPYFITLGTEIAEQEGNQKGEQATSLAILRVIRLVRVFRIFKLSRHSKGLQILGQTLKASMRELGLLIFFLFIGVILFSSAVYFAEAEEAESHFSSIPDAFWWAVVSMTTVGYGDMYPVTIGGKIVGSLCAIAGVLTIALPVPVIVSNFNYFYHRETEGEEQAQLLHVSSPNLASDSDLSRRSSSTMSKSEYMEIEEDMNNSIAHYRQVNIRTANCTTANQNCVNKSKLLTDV
T3 sequence (P22001 whole entry): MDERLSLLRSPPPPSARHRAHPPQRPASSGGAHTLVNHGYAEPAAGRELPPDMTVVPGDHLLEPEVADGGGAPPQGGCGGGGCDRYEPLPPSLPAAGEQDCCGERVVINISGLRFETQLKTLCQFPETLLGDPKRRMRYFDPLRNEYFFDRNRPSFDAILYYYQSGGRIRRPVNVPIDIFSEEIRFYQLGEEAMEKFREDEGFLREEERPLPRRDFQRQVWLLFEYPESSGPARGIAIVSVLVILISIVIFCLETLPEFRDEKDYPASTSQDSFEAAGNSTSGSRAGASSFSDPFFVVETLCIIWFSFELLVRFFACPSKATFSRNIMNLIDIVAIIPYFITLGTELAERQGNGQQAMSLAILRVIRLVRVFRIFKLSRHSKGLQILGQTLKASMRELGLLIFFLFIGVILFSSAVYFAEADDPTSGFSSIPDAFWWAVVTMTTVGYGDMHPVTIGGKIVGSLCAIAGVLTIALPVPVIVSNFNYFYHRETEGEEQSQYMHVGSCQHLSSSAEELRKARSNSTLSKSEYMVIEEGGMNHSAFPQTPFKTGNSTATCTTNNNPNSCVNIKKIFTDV
T2 sequence (P22001 whole entry): as above
T4 sequence (P17658 whole entry): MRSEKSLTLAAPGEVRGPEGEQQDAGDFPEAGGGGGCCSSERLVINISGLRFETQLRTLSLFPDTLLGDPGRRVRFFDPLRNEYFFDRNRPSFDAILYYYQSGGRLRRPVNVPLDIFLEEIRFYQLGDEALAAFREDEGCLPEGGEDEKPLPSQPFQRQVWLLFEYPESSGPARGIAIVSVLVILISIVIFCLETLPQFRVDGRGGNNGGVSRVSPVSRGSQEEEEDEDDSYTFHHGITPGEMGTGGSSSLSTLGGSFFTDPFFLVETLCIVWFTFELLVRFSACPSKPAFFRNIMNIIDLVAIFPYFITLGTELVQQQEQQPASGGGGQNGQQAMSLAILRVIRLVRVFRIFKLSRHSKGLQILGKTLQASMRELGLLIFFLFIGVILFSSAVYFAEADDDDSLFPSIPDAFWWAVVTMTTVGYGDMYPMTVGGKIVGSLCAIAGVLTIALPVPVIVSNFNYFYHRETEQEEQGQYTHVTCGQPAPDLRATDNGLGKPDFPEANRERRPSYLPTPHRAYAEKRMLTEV

On to `CCCC[C@@H]1NC(=O)[C@@H]2CSSC[C@H](N)C(=O)N[C@@H](CO)C(=O)N[C@@H](C)C(=O)N[C@@H](CO)C(=O)N[C@@H](C(C)C)C(=O)N[C@@H](CCC(=O)O)C(=O)N[C@H]3CSSC[C@H](NC(=O)[C@H](CCCCN)NC(=O)[C@H](CCCCN)NC(=O)[C@H](CC(N)=O)NC1=O)C(=O)N[C@@H](CCCCN)C(=O)N[C@H](C(=O)N[C@@H](Cc1ccc(O)cc1)C(=O)N1CCC[C@H]1C(=O)N[C@@H](CCCNC(=N)N)C(N)=O)CSSC[C@H](NC(=O)[C@H](CCCCN)NC(=O)[C@H](CCC(N)=O)NC(=O)[C@H](CCCCN)NC3=O)C(=O)N[C@@H](CC(C)C)C(=O)N[C@@H](CCCCN)C(=O)N[C@@H](C)C(=O)N[C@@H]([C@@H](C)CC)C(=O)NCC(=O)N[C@@H](CO)C(=O)N[C@@H]([C@@H](C)CC)C(=O)N[C@@H](Cc1ccccc1)C(=O)NCC(=O)N[C@@H](CCCCN)C(=O)N2` [Compound 104] (H-CSASVECKQKCLKAIGSIFGKC[Nle]NKKCKCYPR-NH2; disulfide 1-22, 7-27, 11-29), for which the IC50 on Kv1.1 was greater than 3000 nM; on Kv1.3, 0.43 nM; on Kv1.6, greater than 3000 nM; at Kv1.2, greater than 3000 nM. Moreover, the “Selectivity Kv1.1/Kv1.3” value on Kv1.1 is given as greater than 7000. Further, in assay [1], the negative-log IC50 (pIC50) is 9.92. Further, the “Selectivity Kv1.6/Kv1.3” value on Kv1.6 is greater than 7000. Also, the “Selectivity Kv1.2/Kv1.3” value on Kv1.2 (ratio IC50[Kv1.2]/IC50[Kv1.3]) is reported as greater than 7000.
Turning to `CC[C@H](C)[C@@H]1NC(=O)[C@H](C)NC(=O)[C@H](CCCCN)NC(=O)[C@H](CC(C)C)NC(=O)[C@@H]2CSSC[C@@H](C(=O)N[C@@H](Cc3ccc(O)cc3)C(=O)N3CCC[C@H]3C(=O)N[C@@H](CCCNC(=N)N)C(N)=O)NC(=O)[C@H](CCCCN)NC(=O)[C@@H]3CSSC[C@H](NC(=O)[C@H](CCC(=O)O)NC(=O)[C@H](C(C)C)NC(=O)[C@H](CO)NC(=O)[C@H](C)NC(=O)[C@H](CO)NC(=O)[C@@H](NC(=O)[C@H](CCCNC(=N)N)NC(=O)[C@H](CCSC)NC(=O)[C@H](CC(=O)O)NC(=O)[C@H](CCSC)NC(=O)[C@@H](N)CC(N)=O)CSSC[C@H](NC(=O)[C@H](CCCCN)NC(=O)CNC(=O)[C@H](Cc4ccccc4)NC(=O)[C@H]([C@@H](C)CC)NC(=O)[C@H](CO)NC(=O)CNC1=O)C(=O)N[C@@H](CCSC)C(=O)N[C@@H](CC(N)=O)C(=O)N[C@@H](CCCCN)C(=O)N[C@@H](CCCCN)C(=O)N3)C(=O)N[C@@H](CCCCN)C(=O)N[C@@H](CCC(N)=O)C(=O)N[C@@H](CC(C)C)C(=O)N2` [Compound 18] (H-NMDMRCSASVECKQLCLKAIGSIFGKCMNKKCKCYPR-NH2; disulfide 6-27, 12-32, 16-34), the 50% inhibitory concentration (IC50) on Kv1.1 is greater than 3000 nM; at Kv1.3 it was 0.24 nM; at Kv1.6, greater than 3000 nM; at Kv1.2, 256 nM. The “Selectivity Kv1.1/Kv1.3” value at Kv1.1 is given as greater than 12700. Also, the negative logarithm of the IC50 (pIC50) in assay [1] is 9.72. The “Selectivity Kv1.6/Kv1.3” value on Kv1.6 is given as greater than 12700.
Regarding `CC[C@H](C)[C@@H]1NC(=O)[C@H](C)NC(=O)[C@H](CCCCN)NC(=O)[C@H](CC(C)C)NC(=O)[C@@H]2CSSC[C@@H](C(=O)N[C@@H](Cc3ccc(O)cc3)C(=O)N3CCC[C@H]3C(=O)N[C@@H](CCCNC(=N)N)C(N)=O)NC(=O)[C@H](CCCCN)NC(=O)[C@@H]3CSSC[C@H](NC(=O)[C@H](CCC(=O)O)NC(=O)[C@H](C(C)C)NC(=O)[C@H](CO)NC(=O)[C@H](C)NC(=O)[C@H](CO)NC(=O)[C@@H](NC(=O)[C@H](CCCNC(=N)N)NC(=O)[C@H](CCSC)NC(=O)[C@H](CC(=O)O)NC(=O)[C@H](CCSC)NC(=O)[C@@H](N)CC(N)=O)CSSC[C@H](NC(=O)[C@H](CCCCN)NC(=O)CNC(=O)[C@H](Cc4ccccc4)NC(=O)[C@H](CCCCN)NC(=O)[C@H](CO)NC(=O)CNC1=O)C(=O)N[C@@H](CCSC)C(=O)N[C@@H](CC(N)=O)C(=O)N[C@@H](CCCCN)C(=O)N[C@@H](CCCCN)C(=O)N3)C(=O)N[C@@H](CCCCN)C(=O)N[C@@H](CCC(N)=O)C(=O)N[C@@H](CCCCN)C(=O)N2` [Compound 34] (H-NMDMRCSASVECKQKCLKAIGSKFGKCMNKKCKCYPR-NH2; disulfide 6-27, 12-32, 16-34), the half-maximal inhibitory concentration (IC50) on Kv1.1 was greater than 3000 nM; at Kv1.3 it was 0.42 nM; on Kv1.6 it was 207 nM; at Kv1.2, 100 nM. Moreover, the “Selectivity Kv1.1/Kv1.3” value at Kv1.1 is on record as greater than 7100. Besides, the pIC50 in assay [1] was 9.96.
Take `CC[C@H](C)[C@@H]1NC(=O)[C@H](C)NC(=O)[C@H](CCCCN)NC(=O)[C@H](CC(C)C)NC(=O)[C@@H]2CSSC[C@@H](C(=O)N[C@@H](Cc3ccc(O)cc3)C(=O)N3CCC[C@H]3C(=O)N[C@@H](CCCNC(=N)N)C(=O)O)NC(=O)[C@H](CCCCN)NC(=O)[C@@H]3CSSC[C@H](NC(=O)[C@H](CCC(=O)O)NC(=O)[C@H](C(C)C)NC(=O)[C@H](CO)NC(=O)[C@H](C)NC(=O)[C@H](CO)NC(=O)[C@@H](N)CSSC[C@H](NC(=O)[C@H](CCCCN)NC(=O)CNC(=O)[C@H](Cc4ccccc4)NC(=O)[C@H]([C@@H](C)CC)NC(=O)[C@H](CO)NC(=O)CNC1=O)C(=O)N[C@@H](CCSC)C(=O)N[C@@H](CC(N)=O)C(=O)N[C@@H](CCCCN)C(=O)N[C@@H](CCCCN)C(=O)N3)C(=O)N[C@@H](CCCCN)C(=O)N[C@@H](CCC(N)=O)C(=O)N[C@@H](CCCCN)C(=O)N2` [Compound 117] (H-CSASVECKQKCLKAIGSIFGKCMNKKCKCYPR-OH; disulfide 1-22, 7-27, 11-29): the half-inhibitory concentration (IC50) on Kv1.1 is greater than 3000 nM; at Kv1.3, 2.09 nM; on Kv1.6 it was greater than 3000 nM; at Kv1.2, 1830 nM. The “Selectivity Kv1.1/Kv1.3” value on Kv1.1 is reported as greater than 1400. In assay [1], the negative logarithm of the IC50 (pIC50) is 8.82. On Kv1.6, the “Selectivity Kv1.6/Kv1.3” value is greater than 1400.
As for `CC[C@H](C)[C@@H]1NC(=O)[C@H](C)NC(=O)[C@H](CCCCN)NC(=O)[C@H](CC(C)C)NC(=O)[C@@H]2CSSC[C@@H](C(=O)N[C@@H](Cc3ccc(O)cc3)C(=O)N3CCC[C@H]3C(=O)N[C@@H](CCCNC(=N)N)C(=O)O)NC(=O)[C@H](CCCCN)NC(=O)[C@@H]3CSSC[C@H](NC(=O)[C@H](CCC(=O)O)NC(=O)[C@H](C(C)C)NC(=O)[C@H](CO)NC(=O)[C@H](C)NC(=O)[C@H](CO)NC(=O)[C@@H](NC(=O)[C@H](CCCNC(=N)N)NC(=O)[C@H](CCSC)NC(=O)[C@H](CCC(=O)O)NC(=O)[C@H](CCSC)NC(=O)[C@@H](N)CC(N)=O)CSSC[C@H](NC(=O)[C@H](CCCCN)NC(=O)CNC(=O)[C@H](Cc4ccccc4)NC(=O)[C@H]([C@@H](C)CC)NC(=O)[C@H](CO)NC(=O)CNC1=O)C(=O)N[C@@H](CCSC)C(=O)N[C@@H](CC(N)=O)C(=O)N[C@@H](CCCCN)C(=O)N[C@@H](CCCCN)C(=O)N3)C(=O)N[C@@H](CCCCN)C(=O)N[C@@H](CCC(N)=O)C(=O)N[C@@H](CCCCN)C(=O)N2` [Compound 12] (H-NMEMRCSASVECKQKCLKAIGSIFGKCMNKKCKCYPR-OH; disulfide 6-27, 12-32, 16-34), the 50% inhibitory concentration (IC50) at Kv1.1 was greater than 3000 nM; on Kv1.3, 0.11 nM; at Kv1.6, greater than 3000 nM; on Kv1.2, 228 nM. Besides, the “Selectivity Kv1.1/Kv1.3” value on Kv1.1 is greater than 27600. The negative logarithm of the IC50 (pIC50) in assay [1] is 9.64. The “Selectivity Kv1.6/Kv1.3” value at Kv1.6 is on record as greater than 27600.
In the case of `CC[C@H](C)[C@@H]1NC(=O)[C@H](C)NC(=O)[C@H](CCCCN)NC(=O)[C@H](CC(C)C)NC(=O)[C@@H]2CSSC[C@@H](C(=O)N[C@@H](Cc3ccc(O)cc3)C(=O)N3CCC[C@H]3C(=O)N[C@@H](CCCNC(=N)N)C(N)=O)NC(=O)[C@H](CCCCN)NC(=O)[C@@H]3CSSC[C@H](NC(=O)[C@H](CCC(=O)O)NC(=O)[C@H](C(C)C)NC(=O)[C@H](CO)NC(=O)[C@H](C)NC(=O)[C@H](CO)NC(=O)[C@@H](NC(=O)[C@H](CCCNC(=N)N)NC(=O)[C@H](CCSC)NC(=O)[C@H](CC(=O)O)NC(=O)[C@H](CCSC)NC(=O)[C@@H](N)CC(N)=O)CSSC[C@H](NC(=O)[C@H](CCCCN)NC(=O)CNC(=O)[C@H](Cc4ccccc4)NC(=O)[C@H]([C@@H](C)CC)NC(=O)[C@H](CO)NC(=O)CNC1=O)C(=O)N[C@@H](CCSC)C(=O)N[C@@H](CC(N)=O)C(=O)NCC(=O)N[C@@H](CCCCN)C(=O)N3)C(=O)N[C@@H](CCCCN)C(=O)N[C@@H](CCC(N)=O)C(=O)N[C@@H](CCCCN)C(=O)N2` [Compound 36] (H-NMDMRCSASVECKQKCLKAIGSIFGKCMNGKCKCYPR-NH2; disulfide 6-27, 12-32, 16-34), the IC50 at Kv1.1 was greater than 3000 nM; at Kv1.3, 0.31 nM; at Kv1.6 it was greater than 3000 nM; at Kv1.2 it was 439 nM. Besides, the “Selectivity Kv1.1/Kv1.3” value on Kv1.1 is on record as greater than 9700. Also, in assay [1], the negative logarithm of the IC50 (pIC50) was 9.62. The “Selectivity Kv1.6/Kv1.3” value at Kv1.6 is listed as greater than 9700.

Values taken from patent publication US11780893B2, “Kv1.3 blockers” (Zealand Pharma A/S, priority 2019, dated 2023).
